Laboratory results: ChEMBL document CHEMBL1201862, “PubChem BioAssay data set” (2004)
The source made the active and inactive calls.

Experiments:
X-box-binding protein 1 = X-box-binding protein 1 (Homo sapiens, UniProt P17861); assay type: functional, Cricetulus griseus;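 also: confirmatory dose-response counter-screen serving a CHOP assay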
[1] = target: Female germline-specific tumor suppressor gld-1 (Caenorhabditis elegans, UniProt Q17339); experiment: blockers of GLD-1/TGE RNA complex formation – biochemical, fluorescence polarization, C. elegans, dose response (AID 2802);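 also: fluorescence polarization of labeled TGE RNA bound by purified gld-1 protein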
Protein Rev = Protein Rev (Human immunodeficiency virus type 1 group M subtype B (isolate HXB2)(HIV-1), UniProt P04618); experiment: blockers of HIV Rev/RRE RNA complex – biochemical, fluorescence polarization, HIV-1, dose response (AID 434976); set-up: species or system Human immunodeficiency virus 1
[2] = target: DNA dC->dU-editing enzyme APOBEC-3G (Homo sapiens, UniProt Q9HC16); experiment: Dose Response confirmation of small molecule APOBEC3G DNA Deaminase Inhibitors via a fluorescence-based single-stranded DNA deaminase assay. [Related pubchem assays (depositor defined):AID493012, AID493028]; assay type: functional
[3] = target: DNA dC->dU-editing enzyme APOBEC-3A (Homo sapiens, UniProt P31941); experiment: A3A deaminase inhibition for selectivity – biochemical, dose response (AID 504722); assay type: functional
[4] = target: T1, Neuropeptide Y receptor type 2 (Homo sapiens, UniProt P49146); experiment: Fluorescence-based cell-based high-throughput dose response assay for agonists of NPY-Y2. [Related pubchem assays: 1703 (Screening assay (CNGC inhibitors).), 1359 (Screening assay (NPY-Y2 potentiators or agonists).), 1304 (Screening assay (NPY-Y1 potentiators or agonists).), 1710 (Screening assay (NPY-Y2 agonists).), 1791 (Summary AID.)]; assay type: functional
T1 sequence (P49146 whole entry): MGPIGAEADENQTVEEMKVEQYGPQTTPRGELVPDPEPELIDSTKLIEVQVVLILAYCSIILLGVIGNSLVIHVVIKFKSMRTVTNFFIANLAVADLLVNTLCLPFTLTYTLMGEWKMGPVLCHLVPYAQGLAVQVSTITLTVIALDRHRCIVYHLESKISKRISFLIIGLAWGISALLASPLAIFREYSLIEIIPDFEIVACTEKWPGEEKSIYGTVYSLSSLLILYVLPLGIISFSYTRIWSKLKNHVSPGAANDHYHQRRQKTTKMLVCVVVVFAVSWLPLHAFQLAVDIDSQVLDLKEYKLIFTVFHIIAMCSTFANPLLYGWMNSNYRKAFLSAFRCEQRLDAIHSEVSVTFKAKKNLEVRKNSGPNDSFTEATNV

[5] = target: T2, Short transient receptor potential channel 4 (Mus musculus, UniProt Q9QUQ5); experiment: block of DAMGO-driven TRPC4 calcium entry – cell-based, HEK293 TRPC4/mu-opioid, Fluo-4 calcium, dose response (AID 434942); assay type: functional;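 also: potency of inhibitors blocking the TRPC4 calcium response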
T2 sequence (Q9QUQ5 whole entry): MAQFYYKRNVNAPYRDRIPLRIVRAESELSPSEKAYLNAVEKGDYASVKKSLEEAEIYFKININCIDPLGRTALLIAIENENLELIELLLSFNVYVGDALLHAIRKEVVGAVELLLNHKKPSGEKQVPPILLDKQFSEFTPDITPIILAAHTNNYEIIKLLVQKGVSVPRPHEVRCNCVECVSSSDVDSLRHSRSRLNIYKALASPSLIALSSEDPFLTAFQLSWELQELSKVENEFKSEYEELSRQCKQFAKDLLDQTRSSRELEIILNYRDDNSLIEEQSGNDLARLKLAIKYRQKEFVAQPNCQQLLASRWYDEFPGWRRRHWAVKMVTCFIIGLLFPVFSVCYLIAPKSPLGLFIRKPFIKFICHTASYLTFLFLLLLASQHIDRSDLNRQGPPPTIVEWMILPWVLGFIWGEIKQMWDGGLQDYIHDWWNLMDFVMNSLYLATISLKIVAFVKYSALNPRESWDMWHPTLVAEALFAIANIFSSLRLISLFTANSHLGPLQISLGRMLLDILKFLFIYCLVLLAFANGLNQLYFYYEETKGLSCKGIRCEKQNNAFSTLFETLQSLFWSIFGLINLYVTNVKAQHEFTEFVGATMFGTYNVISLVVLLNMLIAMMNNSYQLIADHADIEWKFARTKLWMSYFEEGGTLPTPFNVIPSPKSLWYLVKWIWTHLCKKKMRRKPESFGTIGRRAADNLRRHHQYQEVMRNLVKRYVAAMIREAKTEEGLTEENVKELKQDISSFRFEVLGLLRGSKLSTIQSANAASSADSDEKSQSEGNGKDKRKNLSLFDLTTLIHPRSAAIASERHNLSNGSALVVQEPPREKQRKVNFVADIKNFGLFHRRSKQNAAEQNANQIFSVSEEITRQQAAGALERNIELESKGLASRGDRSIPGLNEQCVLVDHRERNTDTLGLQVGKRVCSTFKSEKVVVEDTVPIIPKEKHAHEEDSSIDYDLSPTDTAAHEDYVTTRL

[6] = target: Eukaryotic translation initiation factor 4E (Mus musculus, UniProt P63073); experiment: blockers of eIF4G binding by eIF4E – biochemical, TR-FRET, dose response (AID 855); assay type: functional;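 also: potency for disrupting eIF4E binding to eIF4GI seen as loss of FRET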
HEK293 = experiment: Fluorescence-based counterscreen for potentiators or agonists of NPY-Y2: cell-based high-throughput dose response assay to identify inhibitors of cyclic nucleotide gated ion channel (CNGC) activity. In this assay, the parental HEK293 cell line transfected with a cyclic-nucleotide gated ion channel (CNGC)-based cAMP sensor is used to measure inhibition of isoproterenol-induced CNGC activity by test compound.; assay type: functional; details: Homo sapiens;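 also: stimulus is 1 µM isoproterenol at EC100 plus PDE inhibitor Ro 20-1724 at 25 µM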
[7] = target: T3, Neuropeptide Y receptor type 1 (Homo sapiens, UniProt P25929); experiment: Fluorescence-based counterscreen for agonists of NPY-Y2: cell-based high-throughput dose response assay for agonists of NPY-Y1.; assay type: functional
T3 sequence (P25929 whole entry): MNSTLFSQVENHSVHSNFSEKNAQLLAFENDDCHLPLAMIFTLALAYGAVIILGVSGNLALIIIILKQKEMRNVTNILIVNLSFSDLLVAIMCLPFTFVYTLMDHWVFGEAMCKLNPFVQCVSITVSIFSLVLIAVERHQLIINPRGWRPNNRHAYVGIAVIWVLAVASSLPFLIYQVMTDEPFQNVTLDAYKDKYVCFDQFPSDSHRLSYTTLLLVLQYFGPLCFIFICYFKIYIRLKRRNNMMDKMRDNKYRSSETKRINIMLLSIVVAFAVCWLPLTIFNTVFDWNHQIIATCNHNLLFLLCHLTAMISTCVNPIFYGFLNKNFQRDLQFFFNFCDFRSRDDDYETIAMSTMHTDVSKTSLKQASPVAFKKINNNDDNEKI

Streptococcus [8] = experiment: GAS UMAA2166 growth inhibition – luminescence, BacTiterGlo, counter-screen for streptokinase expression inhibitor project, dose response (AID 1915); assay type: functional, organism-based;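 also: potency for reduction of bacterial viability or growth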
Streptococcus [9] = experiment: Luminescence Microorganism-Based Dose Response Follow up to Identify Compounds Cytotoxic to Streptococcus. [Related pubchem assays: 1677 (Project Summary), 1915, 1914, 1902 (Retest at Dose), 1900 (Counter Screen), 1662 (Primary HTS)]; assay type: functional, organism-based
[10] = tested on: Streptococcus sp. 'group A'; experiment: Streptococcus pyogenes SK(-)GAS viability under kanamycin – luminescence, BacTiterGlo, confirmation, counter-screen for streptokinase expression inhibitor project, dose response (AID 1900); assay type: functional, organism-based
Streptokinase A = target: T4, Streptokinase A (Streptococcus pyogenes serotype M1, UniProt P10520); experiment: viability-normalized secreted streptokinase activity reduction – plasminogen activation absorbance, OD405, dose response (AID 1914); assay type: functional, Streptococcus pyogenes M1 GAS;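 also: secreted streptokinase activity via plasminogen activation per viability signal from cell pellet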
T4 sequence (P10520 whole entry): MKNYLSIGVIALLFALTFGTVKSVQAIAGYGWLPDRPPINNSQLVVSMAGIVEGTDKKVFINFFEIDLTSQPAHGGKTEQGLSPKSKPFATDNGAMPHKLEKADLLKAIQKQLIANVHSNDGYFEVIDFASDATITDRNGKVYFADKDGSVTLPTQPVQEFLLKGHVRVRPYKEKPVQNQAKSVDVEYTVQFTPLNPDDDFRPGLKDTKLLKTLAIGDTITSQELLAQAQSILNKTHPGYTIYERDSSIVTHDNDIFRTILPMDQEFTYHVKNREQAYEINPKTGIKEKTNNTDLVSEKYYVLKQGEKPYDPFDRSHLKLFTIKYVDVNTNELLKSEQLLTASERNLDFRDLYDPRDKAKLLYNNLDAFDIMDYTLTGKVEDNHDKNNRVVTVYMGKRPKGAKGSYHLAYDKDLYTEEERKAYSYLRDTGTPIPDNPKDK

Female germline-specific tumor suppressor gld-1, sequence (Q17339 whole entry): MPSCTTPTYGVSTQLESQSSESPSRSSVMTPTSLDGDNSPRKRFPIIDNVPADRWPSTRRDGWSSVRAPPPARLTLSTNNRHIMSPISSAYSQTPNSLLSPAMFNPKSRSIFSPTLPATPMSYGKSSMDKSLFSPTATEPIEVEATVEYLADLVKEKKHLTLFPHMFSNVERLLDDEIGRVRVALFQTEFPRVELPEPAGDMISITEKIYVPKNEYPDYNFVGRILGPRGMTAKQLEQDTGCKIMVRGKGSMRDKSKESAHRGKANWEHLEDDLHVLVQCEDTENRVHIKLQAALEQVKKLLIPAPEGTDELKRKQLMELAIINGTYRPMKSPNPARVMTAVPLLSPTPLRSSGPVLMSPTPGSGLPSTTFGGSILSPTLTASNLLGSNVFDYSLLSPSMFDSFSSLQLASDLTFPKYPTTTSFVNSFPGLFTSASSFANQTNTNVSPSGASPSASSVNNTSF
DNA dC->dU-editing enzyme APOBEC-3G, sequence (Q9HC16 whole entry): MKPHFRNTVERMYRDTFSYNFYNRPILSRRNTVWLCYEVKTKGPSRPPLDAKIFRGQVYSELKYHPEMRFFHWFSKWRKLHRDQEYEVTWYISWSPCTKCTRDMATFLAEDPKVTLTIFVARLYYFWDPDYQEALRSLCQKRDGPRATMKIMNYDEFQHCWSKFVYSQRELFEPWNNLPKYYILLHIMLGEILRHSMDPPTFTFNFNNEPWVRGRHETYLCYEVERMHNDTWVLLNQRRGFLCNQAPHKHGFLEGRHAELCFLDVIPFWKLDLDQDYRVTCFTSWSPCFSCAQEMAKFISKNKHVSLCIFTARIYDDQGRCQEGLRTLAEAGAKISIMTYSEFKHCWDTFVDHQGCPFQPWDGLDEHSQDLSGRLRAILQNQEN
Eukaryotic translation initiation factor 4E, sequence (P63073 whole entry): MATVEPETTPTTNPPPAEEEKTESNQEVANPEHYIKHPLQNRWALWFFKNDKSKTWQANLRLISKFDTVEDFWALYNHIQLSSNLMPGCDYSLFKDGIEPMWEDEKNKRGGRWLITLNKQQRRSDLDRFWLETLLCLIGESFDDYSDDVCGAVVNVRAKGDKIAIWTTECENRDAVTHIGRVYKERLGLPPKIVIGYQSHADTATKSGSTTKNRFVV
X-box-binding protein 1, sequence (P17861 whole entry): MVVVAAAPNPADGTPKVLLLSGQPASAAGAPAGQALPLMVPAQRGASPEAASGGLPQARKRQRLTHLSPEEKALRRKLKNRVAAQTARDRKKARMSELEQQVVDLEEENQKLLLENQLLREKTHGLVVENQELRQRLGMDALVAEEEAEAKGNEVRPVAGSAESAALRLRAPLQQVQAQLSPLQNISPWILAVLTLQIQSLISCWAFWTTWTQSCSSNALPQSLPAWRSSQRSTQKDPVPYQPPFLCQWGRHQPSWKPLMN
Protein Rev, sequence (P04618 whole entry): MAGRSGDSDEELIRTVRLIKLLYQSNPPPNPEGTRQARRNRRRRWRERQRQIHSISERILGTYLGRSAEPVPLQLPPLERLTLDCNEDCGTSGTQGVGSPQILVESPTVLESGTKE
DNA dC->dU-editing enzyme APOBEC-3A, sequence (P31941 whole entry): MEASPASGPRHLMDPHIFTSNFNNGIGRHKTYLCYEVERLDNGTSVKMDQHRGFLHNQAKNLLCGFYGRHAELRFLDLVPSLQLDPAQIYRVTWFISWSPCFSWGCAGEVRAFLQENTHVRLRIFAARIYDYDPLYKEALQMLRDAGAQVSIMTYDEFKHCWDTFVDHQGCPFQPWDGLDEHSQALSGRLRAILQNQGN

Q: Which “Absolute IC50 (XBP1)” value (X-box-binding protein 1) does the source give for `CCCCCCn1c(SCCC)nc2c1c(=O)[nH]c(=O)n2C` here?
A: Its value is 10 µM.

Q: How did the IC50 [1] turn out when `C=CCNC(=O)/C(C#N)=C/c1ccccc1[N+](=O)[O-]` was run?
A: Its IC50 is 1.1 µM (active).

Q: And the IC50 (Protein Rev)?
A: Its IC50 is 10.4 µM (not active).

Q: With `CCc1cc(-c2n[nH]c(=S)n2CC)cs1` as the compound, how does the IC50 [2] read?
A: The IC50 was 5.02 µM (active).

Q: And the IC50 [3]?
A: Its IC50 is > 100 µM (inactive).

Q: For `Cc1cccc(N2CCc3c2nc2ccccc2c3N)c1`, which EC50 [4] is on record?
A: The EC50 was 3.43 µM (active).

Q: What about the EC50 [5] of the same compound?
A: Its EC50 is 1.06 µM (active).

Q: What about the IC50 [6] of the same compound?
A: The IC50 was > 64 µM (inactive).

Q: What about the EC50 (HEK293) of the same compound?
A: The EC50 was 9.3 µM (active).

Q: And the EC50 [7]?
A: Its EC50 is 3.07 µM (active).

Q: How did the EC50 (Streptococcus [8]) turn out when `CC1CCN(C(=O)N2c3ccccc3Sc3ccccc32)CC1` was run?
A: Its EC50 is 28.5 µM (active).

Q: What about the EC50 (Streptococcus [9]) of the same compound?
A: Its EC50 is > 500 µM (not active).

Q: What about the EC50 [10] of the same compound?
A: The EC50 was 13.8 µM (active).

Q: What about the EC50 (Streptokinase A) of the same compound?
A: The EC50 was > 150 µM (not active).
